Reference: patent publication USRE38761E1, “Styryl compounds which inhibit EGF receptor protein tyrosine kinase” (Yissum Research Development Company of the Hebrew …, priority 1987, dated 2005)
Read-outs that look alike come from different tables or passages of the source. One block for each compound: values may come before it.

Key:
EGF receptor [1] = molecular target: T1, EGF receptor (Homo sapiens, UniProt P00533); assay: EGF-receptor kinase (PTK) activity inhibition on extracted EGF receptors, poly(GAT) substrate, Dixon analysis; format: biochemical; parameters: EGF receptors were prepared from A431 cells (obtained from the ATCC) and PTK activity of these receptors was assayed; endogenous in cells; host or cells: A431 cells (ATCC); conditions: EGF receptors from A431 cells; copoly Glu6Ala3Tyr1 substrate; analysis according to Dixon; read-out: Klnh, dissociation constant of the PTK-inhibitor complex
T1 sequence (P00533 25-1210): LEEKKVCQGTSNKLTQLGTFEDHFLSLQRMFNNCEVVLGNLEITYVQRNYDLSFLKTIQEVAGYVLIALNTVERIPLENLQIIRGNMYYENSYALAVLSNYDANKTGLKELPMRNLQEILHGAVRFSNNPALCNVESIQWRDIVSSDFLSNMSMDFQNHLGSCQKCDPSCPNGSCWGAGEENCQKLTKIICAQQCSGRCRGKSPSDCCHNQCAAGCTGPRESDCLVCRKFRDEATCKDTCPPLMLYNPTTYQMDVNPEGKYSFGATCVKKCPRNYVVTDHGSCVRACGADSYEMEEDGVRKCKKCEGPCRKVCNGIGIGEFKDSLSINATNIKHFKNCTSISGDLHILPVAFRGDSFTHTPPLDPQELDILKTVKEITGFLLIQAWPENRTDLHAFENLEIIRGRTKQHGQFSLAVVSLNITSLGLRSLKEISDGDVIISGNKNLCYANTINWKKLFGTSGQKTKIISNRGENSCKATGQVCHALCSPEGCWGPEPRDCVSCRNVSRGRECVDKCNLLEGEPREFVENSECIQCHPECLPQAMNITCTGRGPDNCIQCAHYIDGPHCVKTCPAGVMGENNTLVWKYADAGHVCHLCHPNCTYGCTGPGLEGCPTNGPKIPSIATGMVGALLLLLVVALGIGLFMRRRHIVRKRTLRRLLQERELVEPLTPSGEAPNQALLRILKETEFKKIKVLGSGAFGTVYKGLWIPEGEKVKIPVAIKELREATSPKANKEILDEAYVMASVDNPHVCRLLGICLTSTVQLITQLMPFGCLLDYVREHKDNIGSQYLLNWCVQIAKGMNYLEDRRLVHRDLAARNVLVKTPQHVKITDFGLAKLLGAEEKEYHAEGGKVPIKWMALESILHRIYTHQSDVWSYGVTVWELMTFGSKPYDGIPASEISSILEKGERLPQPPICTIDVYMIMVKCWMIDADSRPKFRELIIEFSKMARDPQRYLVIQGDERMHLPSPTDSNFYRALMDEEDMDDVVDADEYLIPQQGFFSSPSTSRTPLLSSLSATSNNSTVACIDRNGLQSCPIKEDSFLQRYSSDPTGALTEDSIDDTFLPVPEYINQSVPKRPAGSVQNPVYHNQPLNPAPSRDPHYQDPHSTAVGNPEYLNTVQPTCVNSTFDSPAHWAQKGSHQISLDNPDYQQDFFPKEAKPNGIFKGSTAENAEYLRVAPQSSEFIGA
Procedure: The different KInh values were determined by the analysis according to Dixon.
EGF-receptor purification is based on the procedure of Yarden and Schlessinger. A431 cells are grown in 80 cm^2 bottles in confluency (2×10^7 cells per bottle). The cells are washed twice with PBS and harvested with PBS containing 1.0 mmol EDTA (1 hour at 37° C.), and centrifuged at 600 g for 10 minutes. The cells are solubilized in 1 ml per 2×10^7 cells of cold solubilization buffer (50 mmol Hepes buffer, pH 7.6, 1% Triton X-100, 150 mmol NaCl, 5 mmol EGTA, 1 mmol PMSF, 50 μg/ml aprotinin, 25 mmol benzamidine, 5 μg/ml leupeptin, and 10 μg/ml soybean trypsin inhibitor) for 20 minutes at 4° C. After centrifugation at 100000g for 30 minutes, the supernatant is loaded onto a WGA-agarose column (100 μl of packed resin per 2×10^7 cells) and shaken for 2 hours at 4° C. The unabsorbed material is removed and the resin washed twice with HTN buffer (50 mmol Hepes, pH 7.6, 0.1% Triton X-100, 150 mmol NaCl), twice with HTN buffer containing 1 M NaCl, and twice with HTNG buffer (50 mmol Hepes, pH 7.6, 0.1% Triton X-100, 150 mmol NaCl, and 10% glycerol). The EGF receptor is eluted batchwise with HTNG buffer containing 0.5 M N-acetyl-D-glucosamine (200 μl per […] cells). The eluted material is stored in aliquots at −70° C. and diluted before use with TMTNG buffer (50 mmol Tris-Mes buffer, pH 7.6, 0.1% Triton X-100, 150 mmol NaCl, 10% glycerol).
The concentration of EGF in the assay is 300 nM in a final volume of 40 μl. After 5, 10 or 20 minutes, aliquots of 25 μl are applied onto Whatman 3-mm paper cuttings, which are then soaked in cold 10% TCA containing 0.01 M sodium pyrophosphate. After being washed overnight at 4° C., the paper cuttings are dried and counted, measuring ^32P Cerenkov radiation. […] The EGF response for the poly(GAT) phosphorylation is graphed.

[2] = system: cells incubated with EGF or serum; assay: Inhibition of cell proliferation as measured by inhibition of DNA synthesis ([3H]thymidine incorporation); format: cell-based
Procedure: Cells were seeded at 1×10^5 cells per well in 24-well Costar dishes pre-coated with human fibronectin (by incubating for 30 minutes at room temperature with 10 μg/0.5 ml/well). The cells were grown to confluence for 2 days. The medium was changed to DMEM containing 0.5 calf serum for 36-48 hours and the cells were then incubated with EGF (Toyobo, New York, N.Y.) (20 ng/ml) or serum (10% calf serum) and different concentrations of the inhibitory compounds. […] TCA precipitable material was quantitated by scintillation counting (C). […]
Cells termed HER 14 and K721A (=DK) were prepared by transfecting NIH3T3 cells (clone 2.2) (From C. Fryling, NCI, NIH), which lack endogenous EGF-receptors, with cDNA constructs of wild-type EGF-receptor or mutant EGF-receptor lacking tyrosine kinase activity (in which Lys 721 at the ATP-binding site was replaced by an Ala residue, respectively). All cells were grown in DMEM with 10% calf serum (Hyclone, Logan, Utah).

EGF receptor [3] = molecular target: T1, EGF receptor; conditions: membranes of A431 cells; reported; cited from earlier work
[4] = [3H]thymidine incorporation halved, cells stimulated with EGF (20 ng/ml), read-out: IC50 - EGF
[5] = [3H]thymidine incorporation halved, cells stimulated with serum (10% calf serum), read-out: IC50 - FCS

Compound: COc1cc(C=C(C#N)C#N)cc(O)c1O [Example 2, 3-methoxy-4,5-dihydroxybenzylidene malononitrile]
Ki (EGF receptor [1]): 2.2 ± 0.3 µM

Ki (EGF receptor [1]): 3.5 ± 0.6 µM
Compound: N#CC(=Cc1ccc(O)c(O)c1)C(N)=O [Example 6, α-Cyano-3,4-dihydroxycinnamamide]

Compound: CC(C)(C)c1cc(C=C(C#N)C#N)cc(C(C)(C)C)c1O [Example 3, 3,5-di-tert butyl-4-hydroxybenzylidene malononitrile]
IC50 ([2]; read-out: IC50 - EGF): 0.1 µM
IC50 ([2]; read-out: IC50 - FCS): 0.2 µM

Compound: N#CC(=Cc1ccc(O)c(O)c1)C(=O)Nc1ccccc1 [Example 25, N-Phenyl-α-cyano-3,4-dihydroxycinnamamide]
IC50 [2, 4]: 30 µM
IC50 [2, 5]: 100 µM

Compound: N#CC(C#N)=Cc1ccc(C=O)cc1 [Example 15, 4-Formylbenzylidene malononitrile]
Ki (EGF receptor [1]): 20 µM

Compound: N#CC(C#N)=C(O)c1cc(O)c(O)c(O)c1 [Example 5, α-Hydroxy-3,4,5-trihydroxybenzylidene malononitrile]
Ki (EGF receptor [1]): 4.5 µM

Compound: O=CN/C=C/c1cc(O)ccc1O [erbstatin]
inhibition of EGF receptor autophosphorylation (EGF receptor [3]): inhibits the autophosphorylation of the EGF receptor

Compound: CC(C)(C)c1cc(C=C(C#N)C(N)=S)cc(C(C)(C)C)c1 [Example 26, α-Cyano-β-(3,5-di-tertbutylphenyl)propenethioamide]
IC50 [2, 4]: 20 µM
IC50 [2, 5]: 100 µM

Ki (EGF receptor [1]): 23.6 µM
Compound: N#CC(=Cc1ccc(O)c(O)c1)C(=O)O [Example 10, α-Cyano-3,4-dihydroxycinnamic acid]
